The values that follow come from paper PMC4627230, “Identification of TAX2 peptide as a new unpredicted anti-cancer agent” (Oncotarget, 2015).

For assay [1], the system named is tumor vasculature of MIA PaCa-2 xenograft in BALB/C nu/nu mice. As to the kind of experiment: MIA PaCa-2 xenograft vascularization (μCT, dissection). In kind it is in vivo, human tumor xenograft in mouse. The settings on record: 10 mg/kg i.p. 3 times a week for 4 weeks. As for the experimental part:
For the subcutaneous melanoma tumor model, suspensions of B16F1 cells (2.5 × 10^5 cells in 100 μL RPMI-1640 medium) were subcutaneously injected into the left flank of different randomized series of syngeneic C57BL/6 mice (n = 8–10 per group), as previously described. Intraperitoneal administrations of peptide (10 mg/kg mouse weight) or controls (physiological serum 0.9% (w/v) NaCl or a scrambled peptide) were performed at days 3, 5 and 7. In human pancreatic carcinoma xenograft experiments, 3 × 10^6 MIA PaCa-2 cells/mouse were implanted subcutaneously into the left flank of BALB/C athymic nude mice, then TAX2 intraperitoneal treatments (10 mg/kg mouse weight) were performed 3 times a week during 4 weeks starting at day 10 after tumor cells inoculation. Tumor volume was determined according to v = 0.5 A × B^2, where A denotes the largest dimension of the tumor and B represents the smallest dimension. At days indicated, mice were sacrificed and tumors were surgically extracted and fixed in 4% paraformaldehyde for further morphologic studies and for magnetic resonance imaging, or frozen for immunohistochemistry. Mice were also weighed every 2–3 days and daily checked for any modification in their behavior. Loss of 15% body weight was an indication for euthanasia as well as severe tumor necrosis, as it was sometimes associated with skin ulceration that would result in loss of body fluid and/or infection.
Animals were anesthetized by isoflurane (Forene, Abbott France, Rungis, France) inhalation (3% for induction and 1–1.5% for maintenance) and then after placed in a carbon fibers bed. CT images were acquired on a dedicated small animal μCT scanner (Skyscan 1076, Bruker, Kontich, Belgium) while continuously rotating the camera by 180° with the following parameters: 50 kV, 0.5 mm Al filter, 200 μA source current, 35 μm isotropic resolution, 180 ms exposure time, 4 projection images per 0.7° rotation step and a retrospective synchronization. […] Analysis of reconstructed images and quantification of the vascular network were performed using Amira 5.4.3 software.

Assay [2] deals with TSP-1 binding to LRP-1. Nature of the assay: Co-immunoprecipitation TSP-1 with LRP-1. It is filed as cell-based, human. The following applies: HUVECs, 100 μM; total protein lysates. On the procedure:
(§1) Protein lysates prepared in ice-cold lysis buffer or conditioned media were subjected to immunoprecipitation assay using the Pierce Co-IP kit (Thermo Fisher Scientific) according to the manufacturer's protocol. 10 μg of antibody (anti CD47, anti-CD36, anti-FGF2, anti-VEGF, anti-β1 integrin and anti-LRP1 heavy chain) or non-specific IgGs were incubated with the delivered resin and covalently coupled. The antibody-coupled resin was incubated with whole HUVEC protein lysate overnight at 4°C under gentle agitation (no cross-linker was used to stabilize protein complexes before HUVEC lysis). Then the resin was washed and the protein complexes bound to the antibody were eluted. Immunoprecipitated protein complexes were solubilized under denaturing and reducing conditions, heated to 100°C for 5 min and analyzed by immunoblotting as described above. […]
(§2) receptors. HUVECs were treated with TAX2 (100 μM) or scrambled peptide (Ctrl, 100 μM). FGF-2 and VEGF were immunoprecipitated from conditioned media using anti-FGF-2 (clone C-18) and anti-VEGF (clone C-1), respectively. β1 integrin and LRP-1 were immunoprecipitated from total protein lysates using anti-β1 integrin (clone BV7) and anti-LRP-1 heavy chain (clone 8G1), respectively. […] Histogram represents the quantification of relative ligand-bound TSP-1 under TAX2 treatment as compared to control. […]

In assay [3] the test system is TSP-1 binding to VEGF. As to the kind of experiment: Co-immunoprecipitation TSP-1 with VEGF. The settings on record: HUVECs, 100 μM; conditioned media. It is filed as cell-based, human. As for the experimental part: as §1, §2
Assay [4] relates to immobilized TSP-1 (thrombospondin from human platelets). Nature of the assay: ELISA binding of biotin-labeled peptides to immobilized TSP-1. The following applies: biotin-labeled peptide 10 μg/mL, 3 h, room temperature, 0.5% BSA; absorbance 450 nm; n = 3 in triplicate. On the procedure: Microtiter plates (Nunc, ThermoFisher Scientific, Courtaboeuf, France) were coated overnight at 4°C with 0.5 μg TSP-1 in sodium carbonate-bicarbonate (BupH) buffer (Thermo Fisher Scientific). Plates were washed with PBS 0.1% BSA (Sigma-Aldrich) and non-specific sites were saturated during 30 min using 1% (w/v) BSA in BupH buffer. Biotin-labeled peptide (10 μg/mL, determined after dose-response assay from 0.01 to 100 μg/mL) was added in buffer containing 0.5% (w/v) BSA and incubated for 3 h at room temperature. Non-labeled peptide (0.001 to 5 mg/mL) was used as selective competitor. Plates were washed with PBS containing 0.1% (w/v) BSA and treated for 30 min with mouse anti-biotin antibody. Bound antibody was quantified using the mouse IgG Elite Vectastain ABC kit (Vector Laboratories) followed by incubation with 1-Step Turbo TMB substrate as a chromogen (ThermoFisher Scientific). The reaction was stopped with 0.5 M H2SO4 and absorbance was read at 450 nm.
Background: An ELISA detects its analyte on a solid surface through an enzyme-linked reagent.

Assay [5] relates to cGMP production by endothelial cells (HUVECs). As to the kind of experiment: Intracellular cGMP after NO stimulation. In kind it is cell-based, human. The following applies: 100 μM for 15 min, then 10 μM DEA-NONOate 10 min, 1 mM IBMX, n = 3 in triplicate, p < 0.05. On the procedure: HUVECs (1 × 10^4 per well) were grown over 24 h in 96-well plates containing EGM-2 full growth medium and then serum-starved in EBM-2 containing 0.1% (v/v) BSA over additional 24 h. Cells were then pre-treated during 15 min with 100 μM TAX2 in EBM-2 without additives plus 0.1% (v/v) BSA before treatment with NO donor in presence of 1 mM IBMX as a phosphodiesterases inhibitor. After 10 min, intracellular cGMP levels were determined according to the manufacturer's instructions using an enzyme immunoassay kit (Amersham Biosciences).
Supplementary Figure S2: TAX2 inhibits intracellular cGMP production by endothelial cells under NO stimulation. HUVECs (1 × 10^4 per well) were seeded in 96-well plates, maintained in EGM-2 growth medium for 24 h, and then serum-starved for an additional 24 h in EBM-2 containing 0.1% (v/v) BSA. Endothelial cells were then pre-treated with 100 μM TAX2 for 15 min before addition of 10 μM DEA-NONOate. After 10 min, intracellular cGMP was quantified as described in Material & Methods. Results are expressed as percent compared to control (n = 3, each performed in triplicate; t test; * p < 0.05).
(also on this page, place not known: www.impactjournals.com/oncotarget/ Oncotarget, Materials 2015 Supplementary *p) […]

“CEVSQLLKGDAC (disulfide) [TAX2, CD47-derived cyclic disulfide dodecapeptide …]”: in assay [1], the “tumor vasculature in dissections, day 38” value is given as “decreased tumor vasculature” and the “tumor-associated vascular network in 3D reconstruction, day 38” value was “strongly inhibit tumor-associated vascular network”. For the same sequence, the “tumor vascularization until day 38” value in assay [1] (μCT, representative of n = 5) was “striking alteration of tumor vascularization”. The “TSP-1 binding to LRP-1” value in assay [2] was “does not affect”. Also, in assay [3], the “TSP-1 binding to VEGF” value is reported as “does not affect”. In addition, the “binding to immobilized TSP-1” value in assay [4] is reported as “binds to immobilized TSP-1”. The “decrease of cGMP production after NO stimulation” value in assay [5] is “around 25%”.
